The values that follow come from article PMC8000814, “Structure-Based Virtual Screening: Identification of a Novel NS2B-NS3 Protease Inhibitor with Potent Antiviral Activity against Zika and Dengue Viruses” (Microorganisms, 2021).

In this assay the target is T1, ZIKV NS2B-NS3 protease (Zika virus ZIKV/H. sapiens/FrenchPolynesia/10087PF/2013, UniProt A0A024B7W1).
T1 construct: recombinant NS2B-NS3 protease cut from the ZIKV genome polyprotein; codon-optimized synthetic gene in pET22b; His-tag fused; E. coli BL21(DE3); Ni-NTA purified
The assay can be described thus: fluorescence-based protease inhibition assay, ex […] nm / em […] nm. The class given is biochemical. To be noted: read-out: apparent IC50.

T1 sequence (A0A024B7W1 1503-1680): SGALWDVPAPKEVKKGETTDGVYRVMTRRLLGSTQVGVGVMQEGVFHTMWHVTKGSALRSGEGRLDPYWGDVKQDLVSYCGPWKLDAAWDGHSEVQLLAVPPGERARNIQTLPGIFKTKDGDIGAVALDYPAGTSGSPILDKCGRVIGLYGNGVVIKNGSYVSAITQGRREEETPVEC

Take `O=[N+]([O-])c1ccc(Nc2ccc3[nH]ncc3c2)nc1N1CCNCC1` [compound 1]: the IC50 (usually the concentration needed to halve the response being measured) was determined as 1.5 µM.
